Entries after “also recorded” stand apart in the source; their conditions may differ.

Common to all, as to type: in vivo, human
Assay [1] in a line: Simple profiling of cinnamides dissolved in water, tasting by a group of experts with open discussion. On the procedure: The compounds were dissolved in water in the stated concentration and assessed by a group of experts by tasting with open discussion.
The nature of assay [2]: Profiling of cinnamides in a complex base (American beef extract) by 15-25 trained panelists, descriptors scored 0-9, compared with MSG. Conditions: for umami taste character compared with monosodium glutamate: comparison base + 0.05 wt. % MSG. On the procedure: An American beef extract as the base, a corresponding base mixed with monosodium glutamate and a corresponding base mixed with the cinnamide were in each case administered blind individually to 15-25 trained panelists for profiling. Using the descriptors previously decided upon by discussion (mouth-fill, salty, metallic, meaty, bitter, mouth-watering, barbecued-roasted, sweet, sour, lingering) the strength of these was assessed on a scale of 0 (imperceptible) through 9 (very strong). The individual results of the panelists were averaged.
In the spider chart attached as FIG. 1 the profile of an American beef extract as the base (i) is compared with such a base with the addition of 10 ppm (iii) or 50 ppm rubemamine ([…]) (iv) and with a sample (ii) of such a base with the addition of 0.05 wt. % MSG (monosodium glutamate).
In the spider chart attached as FIG. 2 the profile of an American beef extract as the base (i) is compared with such a base with the addition of 5 ppm (iii) or 10 ppm rubescenamine (compound (3)) (iv) and with a sample (ii) of such a base with the addition of 0.05 wt. % MSG (monosodium glutamate).
The taste of a 0.5% American beef extract as base (i) was compared in a tasting by a panel of trained test subjects with the taste of such a base with 10 ppm (iii) or 50 ppm (iv) rubemamine (1) added, and such a base with 0.05 wt. % MSG added (ii).
The test subjects assessed the strength of the stated flavors by giving a score on a scale of 0 (imperceptible) through 9 (very strong corresponding taste). The mean values of the respective scorings are shown.
The taste of a 0.5% American beef extract as base (i) was compared in a tasting by a panel of trained test subjects with the taste of such a base with 5 ppm (iii) or 10 ppm (iv) rubescenamine (3) added, and such a base with 0.05 wt. % MSG added (ii).

Assay [3] can be described thus: Profiling of cinnamides in American beef extract base together with monosodium glutamate (enhancing effect), trained panel, descriptors scored 0-9. Conditions: for enhancement of the monosodium glutamate effect: sample (iv) versus sample (ii) base + 0.05% MSG, FIG. 3: 20 ppm + 0.0025% monosodium glutamate in beef extract base. On the procedure: An American beef extract as the base, a corresponding sauce mixed with monosodium glutamate, a corresponding sauce mixed with the cinnamide and a corresponding base mixed with monosodium glutamate were in each case administered blind individually to 15-25 trained panelists for profiling. Using the descriptors previously decided upon by discussion (mouth-fill, salty, metallic, meaty, bitter, mouth-watering, barbecued-roasted, sweet, sour, lingering) the strength of these was assessed on a scale of 0 (imperceptible) through 9 (very strong). The individual results of the panelists were averaged. […]
Here again (i) a beef extract as the base is compared with (ii) such a base with the addition of 0.05% monosodium glutamate, (iii) such a base with the addition of 0.0025% monosodium glutamate and (iv) such a base with the addition of 0.0025% monosodium glutamate and 5 ppm rubescenamine (3). […]
The test subjects assessed the strength of the stated flavors by giving a score on a scale of 0 (imperceptible) through 9 (very strong corresponding taste). The mean values of the respective scorings are shown. […]

[4] abbreviates: 5 ppm + 0.0025% monosodium glutamate in beef extract base, listed as rubescenamine (3).

As for `COc1ccc(/C=C/C(=O)NCCc2ccc(OC)c(OC)c2)cc1OC` [Compound (1), rubemamine], the “Taste profile (concentration in mg/kg)” value in assay [1] (10 mg/kg) is recorded as “Umami (10 mg/kg)”. For the same compound, in assay [2] (10 mg/kg test concentration in American beef extract base), the “umami taste character compared with monosodium glutamate” value is on record as “umami taste that is very similar to that of monosodium glutamate”. Further, the “enhancement of the monosodium glutamate effect: sample (iv) versus sample (ii) base + 0.05% MSG, FIG. 3” value was “hardly distinguishable from one another other than a slightly lower sweetness” in assay [3] and “virtually indistinguishable” in assay [3] (listed as rubemamine (1)).

Consider `COc1ccc(/C=C/C(=O)NCCc2ccc3c(c2)OCO3)cc1OC` [Compound (3), rubescenamine], for which, in assay [1] (10 mg/kg), the “Taste profile (concentration in mg/kg)” value is given as “Umami, otherwise neutral (10 mg/kg)”. In assay [2] (5 mg/kg test concentration in American beef extract base), the “umami taste character compared with monosodium glutamate” value was “umami taste that is very similar to that of monosodium glutamate”. Also, in assay [2] (5 ppm in American beef extract base), the “taste profile, strength of descriptors (scale 0-9), FIG. 2 curve iii” value is given as “strong effect”. The “taste profile, strength of descriptors (scale 0-9), FIG. 2 curve iv, versus sample (ii) base + 0.05 wt. % MSG” value in assay [2] (10 ppm in American beef extract base) is listed as “for most descriptors is able to achieve a similarly strong assessment to sample (ii)”. Moreover, the “enhancement of the monosodium glutamate effect: sample (iv) versus sample (iii) base + 0.0025% MSG, FIG. 4” value is “in respect of virtually all parameters was assessed as stronger than sample (iii)” in assay [3] (5 ppm + 0.0025% monosodium glutamate in beef extract base) and “assessed more strongly on virtually all parameters than sample (iii)” in assay [3] (setting [4]). In addition, the “"salty" parameter: sample (iv) versus sample (ii) base + 0.05% MSG, FIG. 4” value in assay [3] (setting [4]) is “assessed similarly to sample (ii)”.

As for `O=C(/C=C/c1ccccc1)NCCc1ccc2c(c1)OCO2` [Compound (9), zanthomamine], the “Taste profile (concentration in mg/kg)” value in assay [1] (50 mg/kg) was “Somewhat delayed onset of umami effect (50 mg/kg)”. Also, in assay [3] (50 ppm + 0.0025% monosodium glutamate in beef extract base), the “enhancement of the monosodium glutamate effect: sample (iv) versus sample (iii) base + 0.0025% MSG, FIG. 5” value was “assessed more strongly on virtually all parameters than sample (iii)”.

As for `N[C@@H](CCC(=O)O)C(=O)[O-].[Na+]` [monosodium glutamate, reference compound], in assay [3] (0.0025% monosodium glutamate alone in beef extract base), the “taste profile of sample (iii) versus base (i) without addition, FIG. 3” value was “perceived as less strong than the sample (i) without the addition; also recorded: perceived only slightly less strongly than sample (i) without the addition”.

The values are drawn from patent publication US9144248B2, “Cinnamamides as savory flavorings” (SYMRISE AG, priority 2011, dated 2015).
